For data set [1], the target named is native rat brain NR2B receptors (Rattus norvegicus (Rat), UniProt P35439+Q00960). The data set is described as follows: NR2B radioligand binding assay in rat brain using [3H] (E)-N1-(2-methoxybenzyl)-cinnamidine. On the procedure: This example describes an NR2B receptor binding assay in rat brain using [^3H] […] The binding assay method was adapted from a previously described cellular human NR1a/NR2B cloned receptor assay (Kiss et al. Neurochem. Internatl. 2005, 46:453-464) to rat brain tissue. This assay serves as a selective measure of NR2B receptor binding activity in native rat brain receptors. Briefly, the brains of male Wistar rats were homogenized (Polytron) before centrifugation at 40,000×g for 15 minutes at 4° C. After 2 washes, the final pellet was homogenized and stored at −80° C. The protein concentration was determined by Bradford assay. [^3H] […] Non-specific binding was assessed in the presence of excess (10 μM) (E)-N1-(2-nethoxybenzyl)-cinnamidine.
Test compounds were solubilized at 10 mM in DMSO. Then the dilutions were performed with a constant solvent concentration (1% DMSO) in the assay. After incubation for 4.5 hours at room temperature, the assays were filtered on GF/3 filters pretreated with 0.3% (v/v) polyethylenimine (PEI) with a Packard system. The experiment was performed in duplicate (n=2).

In a further data set the target is human NR1/NR2B (Homo sapiens (Human), UniProt Q05586+Q13224). As to the kind of experiment: NR2B antagonist activity: calcium influx (Fluo-4) assay in HEK293 cells. The class given is cell-based. Here is the method:
Activation of the NR2A or NR2B subtype of NMDA receptor with glutamate as an agonist and glycine co-agonist on these cells results in calcium influx, which can be monitored with fluorescent indicator Fluo-4.
For experiments, the cells were seeded onto poly-D-lysine-coated 96-well black plates with clear bottom (Corning) at a density of ˜50,000 cells/well. After overnight culture, the growth medium was removed from the wells and the cells were incubated at 37° C. for 60 minutes in Hanks buffer containing 4 μM fluo-4-AM (Invitrogen) and 0.1% bovine serum albumin (BSA). After dye-loading, the cells were washed three times with Hanks buffer and incubated for 10 minutes at room temperature with various concentrations of test compounds prepared in Hanks buffer with 0.1% BSA. The cell plates were placed onto an FDSS Cell fluorescence reader (Hamamatsu). After 20 seconds of reading background fluorescence, agonist glutamate at final 100 µM and co-agonist glycine at final 50 μM were added to the cells to activate the receptor, and the resulting fluorescence changes were recorded and quantified. Based on the changes in fluorescence intensity, the pharmacological effect of test compounds was analyzed and the IC50 values derived from a non-linear least squares fitting of the concentration-dependent response to a standard logistic equation using Prism (Graphpad Software, Inc.): Amplitude=Max Amplitude/(1+(IC50/[antagonist])^n).

The test system of data set [2] is wild type mice (male NMRI). The data set is described as follows: Marble Burying Test in wild type mice. In kind it is in vivo, mouse. Conditions: for change in vivo at 3 mg/kg / change in vivo at 10 mg/kg / change in vivo at 30 mg/kg: Mus musculus, ip, read-out: Percent Change in marbles buried relative to vehicle. On the procedure: Animals. Male NMRI mice (20-30 g body weight) were obtained from Janvier Labs (Le Genest-Saint Isle, France) and allowed to acclimate to the animal facility for at least 5 days. Twelve mice were studied per treatment group.
Compound formulation. The test compounds were prepared in a vehicle of 0.5% DMSO and 4% HP-β-CD, and administered orally (PO) or IP. The test compounds or vehicle were administered 20 minutes before the behavioral test described below. Clobazam (8 mg/kg IP), administered 30 minutes before the test, was used as the positive reference compound.
Clobazam was dispersed in 0.2% hydroxypropylmethylcellulose (HPMC) in physiological saline. Dosing volume was 10 mL/kg.
Testing procedure. The Marble Burying Test was conducted as previously described by Broekkamp et al. (Eur. J. Pharmacol. 1986, 126:223-229). Mice exposed to small novel objects (marbles) will bury them in the sawdust floor covering. Anxiolytics decrease the number of marbles buried at non-sedating doses. Mice were individually placed in transparent plastic cages (33×21×18 cm) with 5 cm of sawdust on the floor and 25 marbles grouped in the center of the cage. The cage was covered with an inverted plastic cage. Each test cage, together with the marbles, was impregnated with mouse odor before-hand by leaving 10 mice in the cage for 15 minutes. These mice then played no further role in the experiment. The number of marbles covered by sawdust (⅔ or more) was counted at the end of the 30-minute test. The test was performed blind (compounds versus vehicle).
Statistical analyses. Data were analyzed by comparing test compound-treated groups with the vehicle control group using the Kruskal-Wallis test followed by post-hoc Mann-Whitney U tests. Data comparing the reference compound with the vehicle were analyzed using the Mann-Whitney U test. A p value<0.05 was considered significant.

Data set [3] relates to wild type mice (male C57Bl/6). The data set is described as follows: Novelty Phobia Test in wild type mice. The note with it: for pattern of the dose-response function for bouts of nose touching: mouse, in vivo; for Percent Change in Novel Object Number of Nose Touches relative to vehicle control: pre-test time 10 min. In kind it is in vivo, mouse. On the procedure: Animals. Male C57Bl/6 mice (18-30 g body weight; 6-8 weeks of age) were obtained from Slaccas (Shanghai, China) and allowed to acclimate to the animal facility for 7 days. Mice were group housed in plastic cages (no more than 4 animals per cage) on wood shavings with nesting material. All animals had free access to food (M01-F, Slaccas) and water. The animal facility was maintained under artificial lighting between 7:00 AM and 7:00 PM in a controlled ambient temperature of 22-24° C. and relative humidity between 50-60%.
Compound formulation. The test compounds were prepared in a vehicle of DMSO and HP-β-CD, and administered IP or PO. The test compounds or vehicle were administered at various times (10-20 minutes) before the behavioral test described below. Dosing volume was 10 mL/kg.
Testing procedure. The behavioral testing apparatus was a rectangular black Plexiglas, 2-chambered box, with no top or bottom (50 cm long, 26 cm wide and 15 cm tall) and allowed for the simultaneous testing of 2 mice. The box was placed on a laboratory bench. The chambers of the testing box were cleaned and fresh paper chip bedding was added between tests. Mice were brought to the experiment room in their home cages on the day of testing. Behavioral tests were conducted between 10:00 AM and 1:00 PM in dim light. After drug administration, a mouse was placed into a test chamber and allowed to explore for 10 minutes. After this habituation period, a novel object (e.g., a toy ball of 3 cm in diameter with spikes) was introduced to the center of the chamber for 5 minutes. For the entire 15-minute test period, video was recorded for offline analysis with Any-maze Video Tracking software (Stoelting Co., Wood Dale, Ill.). The total distance traveled during the entire 15 minutes and the number of bouts that each mouse touched the novel object during the last 5 minutes were measured.
Statistical analyses. Data are presented as means and SEMs. Data were analyzed using one-way analysis of variance (ANOVA; Prism, GraphPad Software Inc., San Diego, Calif.), followed by the post-hoc Dunnett's test to compare test compound-treated groups with the vehicle control. A p value<0.05 was considered significant.

A further data set concerns the target hERG channel (Homo sapiens (Human), UniProt Q12809). As to the kind of experiment: hERG channel inhibition, whole cell patch clamp in HEK293 cells. The class given is cell-based. The note with it: Table 1.3A. In general terms: The hERG channel carries a current that helps repolarise heart muscle cells.
Where [4] appears, read: rat brain NR2B receptors, mean of replicates, read-out: Arithmetic Mean Ki.
Where [5] appears, read: read-out: hNR2B IC50, Table 1.3A.
Where [6] appears, read: Table 1.1A, read-out: NR2B IC50.
The mark [7] stands for this setting: Table 1.3A, read-out: hNR2B IC50.

The text below walks through data of patent US11752155B2, “Treatment of autism spectrum disorders, obsessive-compulsive disorder and anxiety disorders” (Rugen Holdings (Cayman) Limited, priority 2016, dated 2023).

Where a name gives a salt, the structure may show the parent alone. Read-outs that look alike come from different tables or passages of the source.

hERG channel, sequence (Q12809 whole entry): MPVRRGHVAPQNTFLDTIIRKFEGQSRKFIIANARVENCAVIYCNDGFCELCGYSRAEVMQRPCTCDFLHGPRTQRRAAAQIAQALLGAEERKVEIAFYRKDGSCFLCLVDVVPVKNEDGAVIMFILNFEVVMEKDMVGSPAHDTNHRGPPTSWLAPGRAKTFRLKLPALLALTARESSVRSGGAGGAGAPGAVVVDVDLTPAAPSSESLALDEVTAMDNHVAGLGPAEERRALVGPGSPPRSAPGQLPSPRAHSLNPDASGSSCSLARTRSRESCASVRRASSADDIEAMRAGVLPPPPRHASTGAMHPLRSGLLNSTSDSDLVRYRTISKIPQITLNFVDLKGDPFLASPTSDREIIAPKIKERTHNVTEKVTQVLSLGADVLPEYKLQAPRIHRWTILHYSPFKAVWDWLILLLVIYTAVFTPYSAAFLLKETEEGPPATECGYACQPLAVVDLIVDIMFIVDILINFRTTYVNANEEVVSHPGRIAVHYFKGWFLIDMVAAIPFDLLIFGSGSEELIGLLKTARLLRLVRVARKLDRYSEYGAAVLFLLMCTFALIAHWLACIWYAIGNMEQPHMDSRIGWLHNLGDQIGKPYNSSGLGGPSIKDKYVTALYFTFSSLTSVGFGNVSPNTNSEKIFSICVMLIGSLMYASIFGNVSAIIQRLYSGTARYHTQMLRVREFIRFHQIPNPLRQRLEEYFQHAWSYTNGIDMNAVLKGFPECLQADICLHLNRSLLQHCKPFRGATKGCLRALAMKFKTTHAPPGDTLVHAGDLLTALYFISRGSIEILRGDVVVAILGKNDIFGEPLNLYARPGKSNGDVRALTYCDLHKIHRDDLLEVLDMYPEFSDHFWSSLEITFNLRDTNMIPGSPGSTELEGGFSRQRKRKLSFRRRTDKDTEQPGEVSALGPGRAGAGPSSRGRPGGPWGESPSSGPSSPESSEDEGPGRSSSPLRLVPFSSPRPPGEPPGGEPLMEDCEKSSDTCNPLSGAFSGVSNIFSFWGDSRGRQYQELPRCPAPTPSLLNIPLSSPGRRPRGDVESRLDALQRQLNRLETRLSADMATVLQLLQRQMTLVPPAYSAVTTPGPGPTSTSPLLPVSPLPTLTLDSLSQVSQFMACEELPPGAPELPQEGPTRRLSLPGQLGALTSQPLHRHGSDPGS
human NR1/NR2B, sequence (Q13224 27-1484, other chains not shown): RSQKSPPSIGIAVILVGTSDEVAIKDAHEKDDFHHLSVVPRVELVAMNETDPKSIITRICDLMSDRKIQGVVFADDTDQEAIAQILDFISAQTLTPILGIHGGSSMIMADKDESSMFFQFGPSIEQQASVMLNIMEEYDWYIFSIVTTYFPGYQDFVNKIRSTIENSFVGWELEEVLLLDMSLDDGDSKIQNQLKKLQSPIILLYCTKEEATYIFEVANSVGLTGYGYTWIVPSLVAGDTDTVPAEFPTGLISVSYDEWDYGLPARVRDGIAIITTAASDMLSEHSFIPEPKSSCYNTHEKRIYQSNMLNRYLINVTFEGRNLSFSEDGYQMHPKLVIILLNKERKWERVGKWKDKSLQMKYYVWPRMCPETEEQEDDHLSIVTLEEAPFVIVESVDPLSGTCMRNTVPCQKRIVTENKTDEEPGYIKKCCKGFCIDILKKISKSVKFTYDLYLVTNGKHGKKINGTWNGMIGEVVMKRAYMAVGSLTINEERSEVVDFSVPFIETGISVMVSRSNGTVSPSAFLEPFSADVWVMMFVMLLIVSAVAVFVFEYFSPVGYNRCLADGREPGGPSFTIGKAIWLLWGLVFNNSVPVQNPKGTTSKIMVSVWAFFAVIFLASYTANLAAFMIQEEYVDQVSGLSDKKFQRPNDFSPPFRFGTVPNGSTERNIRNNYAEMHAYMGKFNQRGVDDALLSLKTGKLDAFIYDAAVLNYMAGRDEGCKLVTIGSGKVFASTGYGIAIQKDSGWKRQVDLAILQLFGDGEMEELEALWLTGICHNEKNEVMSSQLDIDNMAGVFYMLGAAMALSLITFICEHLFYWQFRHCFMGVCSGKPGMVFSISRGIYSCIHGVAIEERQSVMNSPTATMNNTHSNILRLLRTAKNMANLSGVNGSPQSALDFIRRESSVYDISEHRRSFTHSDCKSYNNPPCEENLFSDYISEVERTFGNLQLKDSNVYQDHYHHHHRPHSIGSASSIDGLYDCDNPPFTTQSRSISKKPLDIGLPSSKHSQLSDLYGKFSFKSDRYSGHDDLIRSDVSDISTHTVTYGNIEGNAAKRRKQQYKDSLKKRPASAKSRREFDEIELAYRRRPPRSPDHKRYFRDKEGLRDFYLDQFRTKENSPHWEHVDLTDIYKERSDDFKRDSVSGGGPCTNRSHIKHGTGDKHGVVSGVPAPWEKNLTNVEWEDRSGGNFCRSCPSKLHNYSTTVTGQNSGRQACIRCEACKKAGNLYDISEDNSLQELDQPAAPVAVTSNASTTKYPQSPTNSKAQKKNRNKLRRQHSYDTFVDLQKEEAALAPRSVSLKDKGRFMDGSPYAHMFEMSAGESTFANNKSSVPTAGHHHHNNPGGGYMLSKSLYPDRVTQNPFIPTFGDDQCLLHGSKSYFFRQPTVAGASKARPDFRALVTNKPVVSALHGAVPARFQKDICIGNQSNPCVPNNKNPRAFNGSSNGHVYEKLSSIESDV
native rat brain NR2B receptors, sequence (Q00960 27-1482, other chains not shown): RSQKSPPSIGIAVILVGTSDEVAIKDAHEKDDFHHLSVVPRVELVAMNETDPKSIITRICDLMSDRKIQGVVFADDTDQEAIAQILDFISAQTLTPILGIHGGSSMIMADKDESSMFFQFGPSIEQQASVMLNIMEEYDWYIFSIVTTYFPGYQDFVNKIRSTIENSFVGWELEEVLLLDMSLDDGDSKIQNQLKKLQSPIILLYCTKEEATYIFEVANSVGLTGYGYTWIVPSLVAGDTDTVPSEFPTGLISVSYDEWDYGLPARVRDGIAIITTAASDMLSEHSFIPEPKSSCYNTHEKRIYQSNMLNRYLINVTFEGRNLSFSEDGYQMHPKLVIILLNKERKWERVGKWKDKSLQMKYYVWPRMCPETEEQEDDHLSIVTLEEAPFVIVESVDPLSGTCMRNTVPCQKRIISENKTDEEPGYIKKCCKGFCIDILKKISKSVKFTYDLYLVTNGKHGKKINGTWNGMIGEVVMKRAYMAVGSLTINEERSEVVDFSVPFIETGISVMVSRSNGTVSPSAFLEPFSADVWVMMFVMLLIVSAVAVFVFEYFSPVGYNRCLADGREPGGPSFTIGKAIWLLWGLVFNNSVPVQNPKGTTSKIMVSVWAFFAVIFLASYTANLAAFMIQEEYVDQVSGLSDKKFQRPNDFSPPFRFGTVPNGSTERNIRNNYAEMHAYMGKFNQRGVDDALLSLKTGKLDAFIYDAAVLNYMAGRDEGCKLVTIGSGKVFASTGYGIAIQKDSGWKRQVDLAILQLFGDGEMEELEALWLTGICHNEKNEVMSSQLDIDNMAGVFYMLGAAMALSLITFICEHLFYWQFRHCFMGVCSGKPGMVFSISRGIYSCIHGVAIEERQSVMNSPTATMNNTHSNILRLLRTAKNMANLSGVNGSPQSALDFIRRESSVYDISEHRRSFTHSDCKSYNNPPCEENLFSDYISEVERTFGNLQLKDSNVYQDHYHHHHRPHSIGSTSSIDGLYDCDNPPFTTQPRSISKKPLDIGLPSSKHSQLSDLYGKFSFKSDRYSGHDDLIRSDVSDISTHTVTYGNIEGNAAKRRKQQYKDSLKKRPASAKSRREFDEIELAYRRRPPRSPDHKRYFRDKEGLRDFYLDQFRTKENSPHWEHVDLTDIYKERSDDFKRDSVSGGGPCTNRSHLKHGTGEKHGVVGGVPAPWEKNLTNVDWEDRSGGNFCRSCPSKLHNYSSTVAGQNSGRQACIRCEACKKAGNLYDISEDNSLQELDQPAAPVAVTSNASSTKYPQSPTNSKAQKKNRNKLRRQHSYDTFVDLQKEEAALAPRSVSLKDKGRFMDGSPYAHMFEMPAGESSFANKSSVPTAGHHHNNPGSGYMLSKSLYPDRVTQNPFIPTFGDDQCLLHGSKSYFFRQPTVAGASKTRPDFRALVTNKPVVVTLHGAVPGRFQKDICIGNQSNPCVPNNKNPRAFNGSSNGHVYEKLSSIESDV
Protocol for hERG channel: The assay was performed on hERG channel stably expressed in HEK293 cells. The cells were cultured at 37° C. in a humidified CO2 incubator in the growth medium consisting of DMEM, 10% fetal bovine serum and antibiotics. Prior to the assay, the cells were seeded onto a 12-mm PDL-coated glass coverslip and cultured in a 35-mm Petri dish. After 16 to 40 hours culture, the coverslip was transferred into the chamber of OctaFlow perfusion system (ALA Instrument) and under a constant flow of extracellular solution (140 mM NaCl, 4 mM KCl, 1 mM MgCl2, 2 mM CaCl2, 10 mM HEPES, 10 mM D-glucose, pH 7.35, osmolarity 290). Whole cell patch clamping was performed with a glass micropipette filled with intracellular solution (120 mM KCl, 1.75 mM MgCl2, 5.4 mM CaCl2, 10 mM HEPES, 10 mM EGTA, and 4 mM ATP-K2, pH 7.2, osmolarity 310). Giga-seal was maintained during the test. The voltage control and current measurement were carried out using Axon amplifier 700B, Digidata 1440A and CLAMPEX10 software (Molecular Devices). Whole-cell hERG currents were recorded following the Petroski protocol: the cell was held at −80 mV, and the voltage step jumped from −80 to 30 mV and stay for 2 seconds with a 20-millisecond prepulse at −40 mV. After depolarization, the voltage was decreased to −40 mV and stay for 2 seconds, and returned back to −80 mV. Test compound was applied by quartz capillary tubes tip (200 m inner diameter), and the flow rate was controlled at 2-3 mL/min with OctaFlow perfusion system. Different concentrations of the compound were applied to the cells for 5 minutes and the hERG current was measured three times before, during and after compound treatment. The data were analyzed using Clampfit 10 software (Molecular Devices) to generate IC50 values.

Broadly, the Ki is the equilibrium dissociation constant of an inhibitor or competing ligand from its target. In the case of `COc1ccccc1CNC(=N)/C=C/c1ccccc1` [(E)-N1-(2-methoxybenzyl)-cinnamidine, reference compound], the Ki in data set [1] (high affinity site, rat brain membranes, read-out: inhibition constant (Ki), mean) worked out at 0.22 nM.

As a reminder, the IC50 is the concentration at which inhibition is half-maximal. For `Cc1cnc(C(F)(F)CN2CCC(Nc3ncnc4[nH]ccc34)CC2)c(F)c1` [C-17^A′], the IC50 at human NR1/NR2B amounted to 44 nM.

For the compound `O=C(OCc1ccc(F)cc1)N1CC[C@H](CNc2ccccn2)C(F)(F)C1` [E1-23.4^B′, (R)-4-fluorobenzyl 3,3-difluoro-4-((pyridin-2-ylamino)methyl)piperidine-1-carboxylate], in data set [1] (setting [4]), the Ki worked out at 7.8 nM.

As to `CN1C(=O)CC(=O)N(c2ccccc2)c2cc(Cl)ccc21` [clobazam, Clobazam, reference compound], the “number of buried marbles, positive reference” value in data set [2] (8 mg/kg IP, 30 minutes before the test, data not shown) is recorded as “significantly reduced the number of buried marbles”.

Turning to `Cc1cnc(C(F)(F)CN2CCC(Nc3ncnc4[nH]ccc34)CC2)cn1` [C-230^A′], the IC50 at human NR1/NR2B and on human NR1/NR2B (setting [5]) was 88 nM in each case.

Take `FC(F)(CN1CCC(Nc2ncnc3[nH]ccc23)CC1)c1ccc(Cl)cc1` [C-176^A′]: the 50% inhibitory concentration (IC50) on human NR1/NR2B is 26 nM.

Turning to `Cc1cnc(NC[C@H]2CCN(C(=O)OCc3ccc(Cl)cc3)CC2(F)F)cn1` [E1-21.33^B′, (R)-4-chlorobenzyl 3,3-difluoro-4-(((5-methylpyrazin-2-yl)amino)methyl)piperidine-1-carboxylate mesylate], in data set [1] (setting [4]), the Ki was 11 nM.

Consider `FC(F)Oc1ccc(C(F)(F)CN2CCC(Nc3ncnc4[nH]ccc34)CC2)nc1` [C-12^A′], for which the “bouts of nose touching of the novel object, efficacy” value in data set [3] (IP (C-11 also PO)) is “not efficacious”. Further, in data set [2], the change in vivo at 3 mg/kg was -14%, the change in vivo at 10 mg/kg is -56% and the change in vivo at 30 mg/kg was -100%.

Regarding `Cc1ccc(COC(=O)N2CC[C@H](CNc3cccc(C)n3)C(F)(F)C2)cc1` [E1-23.32^B′, (+)-(R)-4-methylbenzyl 3,3-difluoro-4-(((6-methylpyridin-2-yl)amino)methyl)piperidine-1-carboxylate], the Ki in data set [1] (setting [4]) turned out to be 31 nM.

In the case of `FC(F)c1ccc(C(F)(F)CN2CCC(Nc3ncnc4[nH]ccc34)CC2)nc1` [C-6^A′], in data set [2], the change in vivo at 3 mg/kg was -23%, the change in vivo at 10 mg/kg is -62% and the change in vivo at 30 mg/kg was -100%. The same compound registered an IC50 against hERG channel of 6900 nM. The IC50 at human NR1/NR2B (setting [6]) was 31 nM. The IC50 at human NR1/NR2B (setting [7]) worked out at 31 nM.

In the case of `FCc1ccc(C(F)(F)CN2CCC(Nc3ncnc4[nH]ccc34)CC2)nc1` [C-7^A′], the IC50 on human NR1/NR2B worked out at 14 nM.

`Fc1ccc(C(F)(F)CN2CCC(Nc3ncnc4[nH]ccc34)CC2)nc1` [C-2^A′]: the IC50 at human NR1/NR2B was determined as 124 nM.

Regarding `Cc1ccc(C(F)(F)CN2CCC(Nc3ncnc4[nH]ccc34)CC2)cn1` [C-128^A′], the 50% inhibitory concentration (IC50) at human NR1/NR2B and on human NR1/NR2B (setting [5]) was 89 nM each time.

In the case of `Cc1ccc(COC(=O)N2CC[C@H](CNc3cnc(C#N)cn3)C(F)(F)C2)cc1` [E1-21.30^B′, (R)-4-methylbenzyl 4-(((5-cyanopyrazin-2-yl)amino)methyl)-3,3-difluoropiperidine-1-carboxylate], in data set [1] (setting [4]), the Ki amounted to 31 nM.

As to `Fc1cc(Cl)cnc1C(F)(F)CN1CCC(Nc2ncnc3[nH]ccc23)CC1` [C-16^A′], the IC50 was determined as 60000 nM at hERG channel, 47 nM on human NR1/NR2B and 47 nM on human NR1/NR2B (setting [5]).

Take `FC(F)(F)c1ccc(C(F)(F)CN2CCC(Nc3ncnc4[nH]ccc34)CC2)cc1` [C-178^A′]: the change in vivo at 0.3 mg/kg in data set [3] (Mus musculus, ip, 20 min, IP, 0.3 mg/kg, pre-test time 20 min, read-out: Percent Change in Novel Object Number of Nose Touches relative to vehicle control) was -4.12%. In addition, in data set [3] (Mus musculus, ip, 20 min, IP, 1 mg/kg, pre-test time 20 min, read-out: Percent Change in Novel Object Number of Nose Touches relative to vehicle control), the change in vivo at 1 mg/kg is 50.3%. Further, the change in vivo at 3 mg/kg in data set [3] (Mus musculus, ip, 20 min, IP, 3 mg/kg, pre-test time 20 min, read-out: Percent Change in Novel Object Number of Nose Touches relative to vehicle control) came to 110%. For the same compound, the “pattern of the dose-response function for bouts of nose touching” value in data set [3] is reported as “dose-dependent increases”. Besides, the IC50 against hERG channel stood at 1600 nM; at human NR1/NR2B (setting [6]), 64 nM; on human NR1/NR2B (setting [7]), 64 nM; at human NR1/NR2B (Table 1.4A, read-out: NR2B IC50), 64 nM.

As for `Fc1cc(C(F)(F)F)cnc1C(F)(F)CN1CCC(Nc2ncnc3[nH]ccc23)CC1` [C-18^A′], on human NR1/NR2B (setting [6]), the IC50 was 84 nM.

Turning to `Fc1ccc(C(F)(F)CN2CCC(Nc3ncnc4[nH]ccc34)CC2)cc1` [C-175^A′], the “Percent Change in Novel Object Number of Nose Touches relative to vehicle control” value in data set [3] (IP, 3 mg/kg) is reported as 25.1%; in data set [3] (IP, 10 mg/kg), 139%; in data set [3] (IP, 30 mg/kg), −88.1%. In addition, in data set [3], the “pattern of the dose-response function for bouts of nose touching” value is “inverted U-shaped dose-response function”. In addition, the IC50 on human NR1/NR2B was found to be 22 nM; on human NR1/NR2B (read-out: NR2B IC50, Table 1.4A) it was 22 nM; at human NR1/NR2B (setting [5]), 22 nM.

In the case of `Cc1ccc(C(F)(F)CN2CCC(Nc3ncnc4[nH]ccc34)CC2)nc1` [C-4^A′], the IC50 on human NR1/NR2B and on human NR1/NR2B (setting [5]) was 35 nM each time.

`Cc1ccc(C(F)(F)CN2CCC(N(C)c3ncnc4[nH]ccc34)CC2)nc1` [C-47^A′]: at human NR1/NR2B (setting [6]), the IC50 is 140 nM.

Take `Cc1ccc(C(F)(F)CN2CCC(Nc3ncnc4[nH]ccc34)CC2)cc1` [C-177^A′]: on human NR1/NR2B, the IC50 is 27 nM.
